For test [1], the system named is Candida albicans strains IP 48.72 (ATCC 10231). Description: In vitro antifungal growth inhibition on microtitre plates (optical density 590 nm), compounds alone or as mixtures (Wadley method). Format: cell-based. The following applies: second study. The protocol:
(§1) The following fungi were used for this study: Candida albicans strains IP 48.72 (ATCC 10231) and Aspergillus fumigatus strain IP 864.64 obtained from the Collection Nationale de Cultures de Microorganismes (CNCM) of the Institut Pasteur. The strains are cultured on Yeast Extract-Peptone-Dextrose (YEPD) agar medium comprising 0.5% yeast extract, 0.5% bactopeptone, 2% glucose and 2% agar at 30° C. and in the dark.
(§2) All these compounds were prepared in a DMSO solution at a final concentration of 100 mg/ml. The stock solutions are stored at −20° C. up to the time of use.
(§3) The trials are carried out in RPMI 1640 medium with no sodium bicarbonate, but with L-glutamine buffered with 0.165 mol per litre of 3-[N-morpholino]propanesulphonic acid (MOPS), enriched (<>) or otherwise (<>) with 2% glucose. The pH of this medium is adjusted to 7.0. The medium is sterilized by filtration (0.22 μm) and stored at 4° C. up to the time of use.
(§4) All the antifungal tests are carried out on microtitre plates. The initial suspensions of spores are prepared in a sterile solution containing 0.85% NaCl, supplemented with Tween 80 at 0.01%. These initial suspensions are then diluted in the culture medium (RPMI 1640 enriched or otherwise with 2% glucose) to a final concentration of 10^4 spores per ml. The measurements of viability of each inoculum are verified by subcultures of a volume of 300 μl on YEPD agar medium.
(§5) The antifungal compounds are tested in a range of concentrations ranging from 0.026 to 100 μg of active ingredient/ml. These antifungal compounds are then diluted in RPMI 1640 medium enriched or otherwise with 2% glucose. A final DMSO concentration of 0.2% is used throughout the measurements. Each trial is carried out on a series of dilutions of antifungal compounds, in duplicate. The antifungal dilutions (0.1 ml) and the fungal inoculum (0.1 ml) are added to each of the wells of the microtitre plate. The plates are then read with a spectrophotometer (ELX 800UV Bio-Tek Instruments, Inc) at a wavelength of 590 nm. The plates are read immediately after (t=0) and after 48 hours' incubation at 30° C. and in the dark. The optical density values obtained are correlated with fungal growth between the times t=0 and t=48 hours. The optical density values are used to calculate the percentage inhibition of growth for each concentration of antifungals by comparison with the control. The values are then used to plot a dose-response curve and the EC50 value is determined for each fungus and each compound with the aid of the Grafit 5.0® software (Erithacus software Ltd).
(§6) The method which was used to measure the type of interaction existing between the antifungal compounds in the form of mixtures is the Wadley method.
(§7) In the Wadley approach, the dose-response curve for each of the compounds A and B, and for the mixture AB, is constructed. The EC50 is calculated for each compound taken individually and for the mixture. If a and b are the absolute quantities of the compounds A and B in the mixture (a=1, b=1, a+b=2 under our conditions), the expected effective concentration (EC50exp) may be calculated in the following manner: EC50exp=(a+b)/[a/EC50A)+b/(EC50B)
(§8) The Wadley approach may be used to estimate the type of interaction existing between the fungal compounds, regardless of their concentration. Its reliability is not dependent on the percentage inhibition. The type of interaction between two compounds is given by the level of interaction (LI) which corresponds to the ratio between the expected effective concentration (EC50exp) and that observed (EC50obs) of the mixture. The nature of the interaction obtained by the Wadley formula is presented in Table 1 (see U. Gisi, Synergistic interaction in fungicide mixtures, 1996. Phytopathology 86, 1273-1279) below.
(§9) The experimental conditions are the same as previously described.

The subject of test [2] is Aspergillus fumigatus strain IP 864.64. The description is as above. Format: cell-based. The note with it: second study. As for the experimental part: as §1, §2, §3, §4, §5, §6, §7, §8, §9

As for `CCN(C)C=Nc1cc(C)c(Oc2ccc(C#N)c(C(F)(F)F)c2)cc1C` [Compound I.2, N-ethyl-N-methyl-N′-[4-(4-cyano-3-trifluoromethylphenoxy)-2,5-dimethylphenyl]imidoformamide], the EC50 in test [1] (Candida albicans, ATCC10231, 48 h, strain IP 48.72, RPMI 1640 medium enriched with 2% glucose, 48 hours at 30° C., read-out: EC50) came out at 0.205 µg/mL; in test [2] (Aspergillus fumigatus, IP864.64, 48 h, strain IP 864.64, RPMI 1640 medium enriched with 2% glucose, 48 hours at 30° C., read-out: EC50) it was 0.088 µg/mL. For the same compound, the “efficacy in vitro compared with compounds I.1 and II.1” value in test [1] (enriched medium) is listed as “better efficacy”. The “efficacy in vitro compared with compounds I.1 and II.2” value in test [2] (enriched medium) is recorded as “twice higher”.

The EC50 is the concentration at which the effect is half-maximal.

These data come from patent US20060052459A1, “Antifungal medicaments comprising arylamidine derivatives” (priority 2002, published 2006).
